Assay results published in ChEMBL document CHEMBL4028815, “Novel phosphonate analogs of sulforaphane: Synthesis, in vitro and in vivo anticancer activity” (Eur J Med Chem, 2017).
Activity calls are given as the source filed them. The rule behind the calls is not given here.

What was measured:
Mus musculus [1] = assay: Toxicity in BALB/c mdb mouse implanted with mouse 4T1 cells assessed as spleen weight at 300 umol/kg, ip administered five times weekly measured at 29 day post cell innoculum (reference value: 0.603 +/- 0.133 g); assay type: organism-based; settings: in vivo, 696 h
LoVo [2] = assay: Induction of apoptosis in human LoVo cells assessed as increase in early apoptotic cells at 15 uM after 24 hrs by APC-Annexin-V/propidium iodide staining based flow cytometric method relative to control; assay type: functional
Mus musculus [3] = assay: Toxicity in BALB/c mdb mouse implanted with mouse 4T1 cells assessed as serum AST level at 300 umol/kg, ip administered five times weekly measured at 29 day post cell innoculum (reference value: 136 +/- 10.3 U/L); assay type: organism-based; settings: in vivo, 696 h
Mus musculus [4] = assay: Toxicity in BALB/c mdb mouse implanted with mouse 4T1 cells assessed as lung weight at 300 umol/kg, ip administered five times weekly measured at 29 day post cell innoculum (reference value: 0.2 +/- 0.018 g); assay type: organism-based; settings: in vivo, 696 h
4T1 [5] = assay: Anti-tumor activity against mouse 4T1 cells implanted in BALB/c mdb mouse assessed as tumor growth inhibition at 300 umol/kg, ip administered five times weekly measured on day 15 post cell innoculum relative to control; assay type: functional; settings: 4T1, ip, 360 h, read-out: TGI
LoVo [6] = assay: Induction of apoptosis in human LoVo cells assessed as loss of mitochondrial membrane potential at 15 uM after 24 hrs by JC-1 staining based flow cytometric method relative to control; assay type: functional
Mus musculus [7] = assay: Toxicity in BALB/c mdb mouse implanted with mouse 4T1 cells assessed as WBC level at 300 umol/kg, ip administered five times weekly measured at 29 day post cell innoculum (reference value: 212.3 +/- 82.8 10^3/uL); assay type: organism-based; settings: in vivo, 696 h
LoVo/DX [8] = assay: Induction of apoptosis in human LoVo/DX cells assessed as late apoptotic cells at 15 uM after 24 hrs by APC-Annexin-V/propidium iodide staining based flow cytometric method relative to control; assay type: functional
Mus musculus [9] = assay: Toxicity in BALB/c mdb mouse implanted with mouse 4T1 cells assessed as RBC level at 300 umol/kg, ip administered five times weekly measured at 29 day post cell innoculum (reference value: 8.6 +/- 0.9 10^6/uL); assay type: organism-based; settings: in vivo, 696 h
LoVo [10] = assay: Induction of apoptosis in human LoVo cells assessed as late apoptotic cells at 15 uM after 24 hrs by APC-Annexin-V/propidium iodide staining based flow cytometric method relative to control; assay type: functional
Mus musculus [11] = assay: Toxicity in BALB/c mdb mouse implanted with mouse 4T1 cells assessed as body weight loss at 300 umol/kg, ip administered five times weekly measured on day 11 post cell innoculum; assay type: organism-based; settings: in vivo
4T1 [12] = assay: Anti-tumor activity against mouse 4T1 cells implanted in BALB/c mdb mouse assessed as lung metastasis at 300 umol/kg, ip administered five times weekly measured at 29 days post cell innoculum (reference value: 56 +/- 25); assay type: functional
LoVo [13] = assay: Induction of apoptosis in human LoVo cells assessed as necrotic cells at 15 uM after 24 hrs by APC-Annexin-V/propidium iodide staining based flow cytometric method (reference value: 10%); assay type: functional
Mus musculus [14] = assay: Toxicity in BALB/c mdb mouse implanted with mouse 4T1 cells assessed as hematocrit at 300 umol/kg, ip administered five times weekly measured at 29 day post cell innoculum (reference value: 39.9 +/- 3.7 %); assay type: organism-based; settings: in vivo, 696 h
Mus musculus [15] = assay: Toxicity in BALB/c mdb mouse implanted with mouse 4T1 cells assessed as serum ALT level at 300 umol/kg, ip administered five times weekly measured at 29 day post cell innoculum (reference value: 23.8 +/- 2.2 U/L); assay type: organism-based; settings: in vivo, 696 h
4T1 [16] = assay: Anti-tumor activity against mouse 4T1 cells implanted in BALB/c mdb mouse assessed as tumor growth inhibition at 300 umol/kg, ip administered five times weekly measured on day 29 post cell innoculum relative to control; assay type: functional; settings: 4T1, ip, 696 h, read-out: TGI
Mus musculus [17] = assay: Toxicity in BALB/c mdb mouse implanted with mouse 4T1 cells assessed as serum creatinine level at 300 umol/kg, ip administered five times weekly measured at 29 day post cell innoculum (reference value: 9.3 +/- 1.2 umol/L); assay type: organism-based; settings: in vivo, 696 h
LoVo [18] = assay: Induction of apoptosis in human LoVo cells assessed as increase in caspase3/7 activity at 15 uM using Ac-DEVD-ACC as substrate pretreated for 24 hrs followed by substrate addition measured for 2 hrs by fluorescence assay relative to control; assay type: functional
Mus musculus [19] = assay: Toxicity in BALB/c mdb mouse implanted with mouse 4T1 cells assessed as body weight loss at 300 umol/kg, ip administered on day 14 post cell innoculum; assay type: organism-based; settings: in vivo
Mus musculus [20] = assay: Toxicity in BALB/c mdb mouse implanted with mouse 4T1 cells assessed as hemoglobin level at 300 umol/kg, ip administered five times weekly measured at 29 day post cell innoculum (reference value: 15.1 +/- 1.5 g/dl); assay type: organism-based; settings: in vivo, 696 h
Mus musculus [21] = assay: Toxicity in BALB/c mdb mouse implanted with mouse 4T1 cells assessed as serum PLT level at 300 umol/kg, ip administered five times weekly measured at 29 day post cell innoculum (reference value: 972 +/- 157 10^3/uL); assay type: organism-based; settings: in vivo, 696 h
LoVo [22] = assay: Cell cycle arrest in human LoVo cells at 15 uM after 24 hrs by propidium iodide staining based flow cytometric method; assay type: functional
[23] = Induction of apoptosis in human LoVo/DX cells assessed as loss of mitochondrial membrane potential at 15 uM after 24 hrs by JC-1 staining based flow cytometric method relative to control; assay type: functional
Mus musculus [24] = assay: Toxicity in BALB/c mdb mouse implanted with mouse 4T1 cells assessed as serum urea level at 300 umol/kg, ip administered five times weekly measured at 29 day post cell innoculum (reference value: 3.8 +/- […]); assay type: organism-based; settings: in vivo, 696 h
Mus musculus [25] = assay: Hepatotoxicity in BALB/c mdb mouse implanted with mouse 4T1 cells assessed as liver weight at 300 umol/kg, ip administered five times weekly measured at 29 day post cell innoculum (reference value: 1.2 +/- 0.13 g); assay type: toxicity, organism-based; settings: in vivo, 696 h
[26] = Induction of apoptosis in human LoVo/DX cells assessed as increase in caspase3/7 activity at 15 uM using Ac-DEVD-ACC as substrate pretreated for 24 hrs followed by substrate addition measured for 2 hrs by fluorescence assay relative to control; assay type: functional
Mus musculus [27] = assay: Nephrotoxicity in BALB/c mdb mouse implanted with mouse 4T1 cells assessed as kidney weight at 300 umol/kg, ip administered five times weekly measured at 29 day post cell innoculum (reference value: 0.136 +/- 0.006 g); assay type: toxicity, organism-based; settings: in vivo, 696 h
HL60/MX2 = assay: Cytotoxicity against human HL60/MX2 cells after 72 hrs by sulforhodamine B assay; assay type: functional, cell-based; settings: HL60/MX2, 72 h
A549 = assay: Cytotoxicity against human A549 cells after 72 hrs by sulforhodamine B assay; assay type: functional, cell-based; settings: A549, 72 h
[28] = Resistance index, ratio of IC50 for human HL60/MX2 cells to IC50 for human HL60 cells; assay type: functional
LoVo [29] = assay: Potency index, ratio of sulforaphane IC50 to compound IC50 for human LoVo cells; assay type: functional
4T1 [30] = assay: Cytotoxicity against mouse 4T1 cells after 72 hrs by sulforhodamine B assay; assay type: functional, cell-based; settings: 4T1, 72 h
LoVo/DX [31] = assay: Cell cycle arrest in human LoVo/DX cells at 15 uM after 24 hrs by propidium iodide staining based flow cytometric method; assay type: functional
[32] = Resistance index, ratio of IC50 for human LoVo/DX cells to IC50 for human LoVo cells; assay type: functional
LoVo [33] = assay: Cytotoxicity against human LoVo cells assessed as cell death at >15 uM after 24 hrs; assay type: cell-based
LoVo/DX [34] = assay: Induction of apoptosis in human LoVo/DX cells assessed as increase in caspase3/7 activity at >15 uM using Ac-DEVD-ACC as substrate pretreated for 24 hrs followed by substrate addition measured for 2 hrs by fluorescence assay; assay type: functional, cell-based
MES-SA = assay: Cytotoxicity against human MESSA cells after 72 hrs by sulforhodamine B assay; assay type: functional, cell-based
Mus musculus [35] = assay: Toxicity in BALB/c mdb mouse implanted with mouse 4T1 cells assessed as body weight loss at 300 umol/kg, ip administered five times weekly measured 3 times weekly during compound dosing; assay type: organism-based; settings: in vivo
LoVo [36] = assay: Potency index, ratio of benzyl isothiocyanate IC50 to compound IC50 for human LoVo cells; assay type: functional
BALB/3T3 = assay: Cytotoxicity against mouse BALB/3T3 cells after 72 hrs by sulforhodamine B assay; assay type: cell-based; settings: BALB/3T3, 72 h
[37] = Cytotoxicity against human LoVo/DX cells after 72 hrs by sulforhodamine B assay; assay type: functional, cell-based
MES-SA/Dx5 = assay: Cytotoxicity against human MESSA/DX5 cells after 72 hrs by sulforhodamine B assay; assay type: functional, cell-based; settings: MES-SA/Dx5, 72 h
HL-60 = assay: Cytotoxicity against human HL60 cells after 72 hrs by sulforhodamine B assay; assay type: functional, cell-based; settings: HL-60, 72 h
[38] = Cytotoxicity against human LoVo/DX cells assessed as cell death at >15 uM after 24 hrs; assay type: cell-based
LoVo [39] = assay: Cytotoxicity against human LoVo cells after 72 hrs by sulforhodamine B assay; assay type: functional, cell-based
LoVo [40] = assay: Induction of apoptosis in human LoVo cells assessed as increase in caspase3/7 activity at >15 uM using Ac-DEVD-ACC as substrate pretreated for 24 hrs followed by substrate addition measured for 2 hrs by fluorescence assay; assay type: functional, cell-based

SMILES: S=C=NCc1ccccc1 [BENZYL ISOTHIOCYANATE]
- Activity (Mus musculus [1]): 0.428 g
- Activity (LoVo [2]): 17.8%
- Activity (Mus musculus [3]): 158.6 U/L
- Activity (Mus musculus [4]): 0.245 g
- inhibition in vivo at 300 µmol/kg (4T1 [5]): 18.1%
- Activity (LoVo [6]): 67.6%
- Activity (Mus musculus [7]): 300.8 ×10³ /uL
- Activity (LoVo/DX [8]): Active
- Activity (Mus musculus [9]): 8.8 ×10⁶ /uL
- Activity (LoVo [10]): Active
- Activity (Mus musculus [11]): Toxic
- Activity (4T1 [12]): 36
- Activity (LoVo [13]): Active
- Activity (Mus musculus [14]): 45.1%
- Activity (Mus musculus [15]): 21.5 U/L
- inhibition in vivo at 300 µmol/kg (4T1 [16]): 26.8%
- Activity (Mus musculus [17]): 9.7 µmol/L
- fold change (FC) (LoVo [18]): 11
- Activity (Mus musculus [19]): Non-Toxic
- Activity (Mus musculus [20]): 16 g/dL
- Activity (Mus musculus [21]): 871 ×10³ /uL
- Activity (LoVo [22]): Active
- Activity [23]: 64.6%
- Activity (Mus musculus [24]): 5.6 mmol/L
- Activity (Mus musculus [25]): 1.21 g
- fold change (FC) [26]: 9.4
- Activity (Mus musculus [27]): 0.13 g

SMILES: CC(C)OP(=O)(CCCCCCN=C=S)OC(C)C
- IC50 (HL60/MX2): 4 µM
- IC50 (A549): 10 µM
- Ratio IC50 [28]: 1.4
- Activity (Mus musculus [1]): 0.535 g
- Activity (LoVo [2]): inactive
- Activity (Mus musculus [3]): 163.3 U/L
- Ratio IC50 (LoVo [29]): 10
- IC50 (4T1 [30]): 2.5 µM
- Activity (LoVo/DX [31]): inactive
- Ratio IC50 [32]: 3.5
- Activity (Mus musculus [4]): 0.222 g
- inhibition in vivo at 300 µmol/kg (4T1 [5]): 40.4 to 41%
- Activity (LoVo [33]): Toxic
- Activity (LoVo [6]): 35%
- Activity (Mus musculus [7]): 259.1 ×10³ /uL
- Activity (LoVo/DX [8]): Active
- Activity (LoVo/DX [34]): inactive
- IC50 (MES-SA): 9.5 µM
- Activity (Mus musculus [9]): 10 ×10⁶ /uL
- Activity (Mus musculus [35]): <= 10%
- Activity (LoVo [10]): Active
- Ratio IC50 (LoVo [36]): 5
- Activity (4T1 [12]): 49
- IC50 (BALB/3T3): 11.7 µM
- Activity (LoVo [13]): Active
- Activity (Mus musculus [14]): 49.6%
- IC50 [37]: 9.4 µM
- Activity (Mus musculus [15]): 26.6 U/L
- IC50 (MES-SA/Dx5): 5.8 µM
- inhibition in vivo at 300 µmol/kg (4T1 [16]): -0.2%
- Activity (Mus musculus [17]): 7.1 µmol/L
- IC50 (HL-60): 2.9 µM
- fold change (FC) (LoVo [18]): 3
- Activity [38]: Toxic
- Activity (Mus musculus [20]): 18.2 g/dL
- Activity (Mus musculus [21]): 767 ×10³ /uL
- IC50 (LoVo [39]): 2.7 µM
- Activity (LoVo [40]): inactive
- Activity (LoVo [22]): inactive
- Activity [23]: 35%
- Activity (Mus musculus [24]): 4.7 mmol/L
- Activity (Mus musculus [25]): 1.32 g
- fold change (FC) [26]: 2.2
- Activity (Mus musculus [27]): 0.147 g
